Measured values as given in patent US11225504B2, “Functional polypeptide and its application thereof in preparing medicament for preventing and treating pulmonary fibrosis” (Guangdong Medical University, priority 2017, dated 2022).
Residues, ends and D or L forms follow the SMILES beside them.

Tests used:
[1] = tested on: human normal lung epithelial cell BEAS-2B; test: Growth effects on human normal lung epithelial cell BEAS-2B (FIG. 4); assay type: cell-based
[2] = tested on: bleomycin-induced pulmonary fibrosis; test: Prevention and treatment of pulmonary fibrosis IPF experiment (bleomycin-induced, mice); assay type: in vivo, C57 mice
Experimental: (1) Animals: SPF grade C57 mice, 22 g±2 g, 60 mice, females. The mice was divided into the following groups using the random digits table: the control group, the model group, the pirfenidone group (50 mg/kg), the EZY-1 polypeptide low dose group (0.25 mg/kg), the EZY-1 polypeptide medium dose group (0.5 mg/kg), the EZY-1 polypeptide high dose group (1.0 mg/kg), 10 animals per group. (3) After the mice were anesthetized by intraperitoneal injection of 1% sodium pentobarbital at a dose of 50 mg/kg, they are fixed to the operation console on their back. Their tongues were pulled out with tweezers to expose the trachea, and 5 mg/kg Bleomycin was slowly injected under a cold light source magnifying glass. Immediately after the injection, the operation console was erected and rotated for 3 minutes to evenly distribute the drug solution in the lungs. The control group was injected with an equal volume of isotonic saline in the same way as the previous method. After 10 days, the mice were intra-gastrically administered with 0.1 ml/10 g with drugs. The control group and the model group were intra-gastrically administered with an equal volume of isotonic saline. The other groups were intra-gastrically administered with the corresponding dose of the drug for 35 days, once a day. After 35 days of drug administration, the mice were anesthetized and sacrificed, and the two intact lung tissues were isolated and weighed. The same part of the right upper lobe was taken, fixed with 4% paraformaldehyde for 48 hours, and paraffin sections were generated for Hematoxylin-Eosin (HE) staining for histopathological observations. The same part of the […] was taken for the measurement of HYP content in the lung tissue. Plasma was collected for the measurement of T-SOD, MDA, and GSH-PX levels. Statistical analysis was performed using SPSS 17.0 software. Measurement data were expressed as mean±standard deviation (x±s). Comparison of the means in multiple samples was performed by one-way ANOVA. Comparison between groups was performed by t test, with P≤0.05 indicating statistically significant differences.

[3] = 50 mg/kg intragastric once a day for 35 days, bleomycin mice, mean ± SD

| SMILES | toxicity to normal cells (growth of BEAS-2B) [1] | GSH-PX (plasma) [2, 3] | HYP (lung tissue) [2, 3] | MDA (plasma) [2, 3] | T-SOD (plasma) [2, 3] | pathological changes of lung tissue (HE staining, FIG. 5) ([2]; EZY-1 low, medium and high dose (0.25, 0.5, 1.0 mg/kg), pirfenidone 50 mg/kg, 35 days) |
| --- | --- | --- | --- | --- | --- | --- |
| CC[C@H](C)[C@H](NC(=O)CNC(=O)[C@H](CC(N)=O)NC(=O)[C@H](Cc1ccc(O)cc1)NC(=O)[C@@H](NC(=O)[C@@H](NC(=O)[C@H](CS)NC(=O)[C@H](Cc1ccccc1)NC(=O)[C@H](CS)NC(=O)[C@H](C)NC(=O)CNC(=O)[C@@H](NC(=O)[C@@H](N)CCCNC(=N)N)[C@@H](C)O)C(C)C)[C@@H](C)CC)C(=O)N[C@@H](CC(C)C)C(=O)N[C@@H](Cc1ccc(O)cc1)C(=O)N1CCC[C@H]1C(=O)O [EZY-1 polypeptide, RTGACFCVIYNGILYP] (H-RTGACFCVIYNGILYP-OH) | low toxicity to normal cells |  |  |  |  |  |
| Cc1ccc(=O)n(-c2ccccc2)c1 [pirfenidone] |  | 672.92 ± 98.72 active unit | 48.36 ± 5.01 μg/g lung tissues Wet weight | 6.52 ± 0.71 nmal/mL | 156.05 ± 17.32 U/mL | reduce alveolar structural damage, reduce collagen fiber production, and inhibit the inflammatory cell infiltration |
